We go through six compounds from article PMC11033537 (Iranian Journal of Parasitology, 2024).

One data set has as its system Plasmodium falciparum. The settings on record: cited from earlier work; for antimalarial activity: among 20 nature identical essential oil constituents.
Data set [1] relates to Trichomonas vaginalis cells, TVH1 strain. The format is cell-based. The settings on record: for inhibition at 0.2 µg/mL / inhibition at 0.4 µg/mL / inhibition at 0.8 µg/mL / inhibition at 1.6 µg/mL / inhibition at 3.1 µg/mL / inhibition at 6.2 µg/mL / inhibition at 3.9 µg/mL / inhibition at 7.8 µg/mL / inhibition at 15.6 µg/mL / inhibition at 31.2 µg/mL / inhibition at 62.5 µg/mL / inhibition at 250 µg/mL: read-out: Growth inhibition percent (Mean ± SD).

Data set [2] concerns promastigotes of L. amazonensis. The settings on record: cited from earlier work.
The subject of the next data set is Vero cells. Description: MTT cytotoxicity assay. The format is cell-based. As to conditions: for CC50: Vero cells. (In general: Tetrazolium assays rely on reduction of a dye to a coloured formazan, in cell work by metabolically active cells.)
A short description of another data set: MTT cytotoxicity assay. The format is cell-based. The settings on record: African green monkey, Vero cells.
Data set [3] concerns intramacrophagic amastigotes of L. amazonensis. The settings on record: cited from earlier work.
Data set [4] relates to Trichomonas vaginalis cells, TVH1 strain. The data set is described as follows: Annexin V/PI apoptosis assay by flow cytometry. In kind it is cell-based. The settings on record: sub-MLC concentration, 24 hours. For orientation: A flow cytometer gives signals particle by particle.

Converted amounts (≈) assume the structure as drawn. Where two headings read alike, the source gives them in different places.

On to `C=CC(C)(O)CCC=C(C)CCC=C(C)C` (mixture of isomers) [nerolidol], for which the antimalarial activity entry in the data set on Plasmodium falciparum was “most potent antimalarial activity”.
Regarding `Cc1ncc([N+](=O)[O-])n1CCO` [Metronidazole, reference compound], the “MLC (minimum lethal concentration)” value in data set [1] (12 hours incubation) is 25 mg/L (≈ 146 µM). Also, in data set [1] (48 hours incubation), the “MLC (minimum lethal concentration)” value was determined as 6.25 mg/L (≈ 36.5 µM). In data set [1] (TVH1 isolate), the “drug susceptibility of the isolate” value was “sensitive”. Further, in data set [1] (Trichomonas vaginalis, 12 h), the inhibition at 0.2 µg/mL worked out at 4.9 ± 3.9%, the inhibition at 0.4 µg/mL came out at 19.3 ± 5.5%, the inhibition at 0.8 µg/mL is 38.9 ± 7.1% and the inhibition at 1.6 µg/mL is 59.2 ± 8.6%. In addition, in data set [1] (Trichomonas vaginalis, 12 h), the inhibition at 3.1 µg/mL was determined as 64.6 ± 5.3% and the inhibition at 6.2 µg/mL was 77.5 ± 6.3%. In data set [1] (Trichomonas vaginalis, 24 h), the inhibition at 0.2 µg/mL was 10.3 ± 6.7%, the inhibition at 0.4 µg/mL came to 32.8 ± 2.6%, the inhibition at 0.8 µg/mL stood at 55 ± 4.6% and the inhibition at 1.6 µg/mL amounted to 72.6 ± 2.3%. Besides, in data set [1] (Trichomonas vaginalis, 24 h), the inhibition at 3.1 µg/mL amounted to 84.6 ± 2.7% and the inhibition at 6.2 µg/mL came to 93.4 ± 0.6%. In data set [1] (Trichomonas vaginalis, 48 h), the inhibition at 0.2 µg/mL turned out to be 25.9 ± 4.8%, the inhibition at 0.4 µg/mL worked out at 44 ± 2.2%, the inhibition at 0.8 µg/mL was determined as 73.4 ± 2.5% and the inhibition at 1.6 µg/mL turned out to be 91.5 ± 2.3%. For the same compound, in data set [1] (Trichomonas vaginalis, 48 h), the inhibition at 3.1 µg/mL stood at 98.2 ± 0.4% and the inhibition at 6.2 µg/mL was found to be 100%.
On to `C=CC(C)(CCC=C(C)C)OC(C)=O` (stereo not shown) [linalyl acetate], for which the antimalarial activity result in the data set on Plasmodium falciparum is reported as “most potent antimalarial activity”.
Take `CC(C)=C1CC[C@@H](C)CC1=O` [pulegone]: the antimalarial activity entry with Plasmodium falciparum is “most potent antimalarial activity”.
For `CC1=CCC2CC1C2(C)C` (stereo not drawn) [α-Pinene], in the data set with Plasmodium falciparum, the antimalarial activity entry was “most potent antimalarial activity”. The IC50 was 1.2 ± 0.2 µM in the data set on Plasmodium falciparum (read-out: IC 50 (growth inhibition)); 19.7 mg/L (≈ 145 µM) in data set [2]; 38.9 mg/L (≈ 286 µM) in data set [1] (Trichomonas vaginalis, 12 h); 30.2 mg/L (≈ 222 µM) in data set [1] (Trichomonas vaginalis, 24 h); 22.9 mg/L (≈ 168 µM) in data set [1] (Trichomonas vaginalis, 48 h); 22.9 to 38.9 mg/L (≈ 168 to 286 µM) in data set [1] (Trichomonas vaginalis, read-out: IC50 (range over incubation times)). The IC50 in data set [1] (Trichomonas vaginalis, read-out: mean IC50) is 30.7 mg/L (≈ 225 µM). For the same compound, the “MLC (minimum lethal concentration)” value is 250 mg/L (≈ 1840 µM) in data set [1] (12 hours incubation), 125 mg/L (≈ 918 µM) in data set [1] (24 hours incubation) and 125 mg/L (≈ 918 µM) in data set [1] (48 hours incubation). Also, the inhibition at 3.9 µg/mL amounted to 21.4 ± 7.6% in data set [1] (Trichomonas vaginalis, 12 h); 15.5 ± 5.8% in data set [1] (Trichomonas vaginalis, 24 h); 10.2 ± 6.5% in data set [1] (Trichomonas vaginalis, 48 h). The inhibition at 7.8 µg/mL amounted to 26.3 ± 5.5% in data set [1] (Trichomonas vaginalis, 12 h); 29.2 ± 6.3% in data set [1] (Trichomonas vaginalis, 24 h); 45.3 ± 4.7% in data set [1] (Trichomonas vaginalis, 48 h). The inhibition at 15.6 µg/mL was found to be 40.2 ± 6.3% in data set [1] (Trichomonas vaginalis, 12 h); 69.3 ± 7.7% in data set [1] (Trichomonas vaginalis, 24 h); 74.3 ± 5.2% in data set [1] (Trichomonas vaginalis, 48 h). Further, the inhibition at 31.2 µg/mL in data set [1] (Trichomonas vaginalis, 12 h) amounted to 48.5 ± 4.1%; in data set [1] (Trichomonas vaginalis, 24 h), 76.5 ± 8.8%; in data set [1] (Trichomonas vaginalis, 48 h), 84.1 ± 4.3%. For the same compound, the inhibition at 62.5 µg/mL in data set [1] (Trichomonas vaginalis, 12 h) was found to be 54.5 ± 3.3%; in data set [1] (Trichomonas vaginalis, 24 h) it was 80.9 ± 6.4%; in data set [1] (Trichomonas vaginalis, 48 h), 96.7 ± 6.2%. The inhibition at 250 µg/mL in data set [1] (Trichomonas vaginalis, 12 h) came to 100%; in data set [1] (Trichomonas vaginalis, 24 h) it was 100%; in data set [1] (Trichomonas vaginalis, 48 h), 100%. The “SI (selectivity index = CC50/IC50)” value in the data set with Vero cells (Vero CC50 / Trichomonas IC50, 12 hours) is 5.8; with Vero cells (Vero CC50 / Trichomonas IC50, 24 hours), 6.9; with Vero cells (Vero CC50 / Trichomonas IC50, 48 hours), 5. Besides, in the data set with Vero cells (average of 12, 24 and 48 hours), the “average selectivity index (SI)” value is given as 5.9. Also, the CC50 at 12 h in the data set “MTT cytotoxicity assay” was found to be 226 mg/L (≈ 1660 µM). In “MTT cytotoxicity assay”, this compound registered a cytotoxic concentration (CC50) at 24 h of 209 mg/L (≈ 1530 µM). In “MTT cytotoxicity assay”, this compound had a CC50 at 48 h of 116 mg/L (≈ 851 µM). Moreover, in data set [3], the “IC50 (cytotoxic effect)” value was 15.6 mg/L (≈ 115 µM). The necrotic effect in data set [4] is given as 50.5%.
Tannic acid: the “Growth inhibition percent (Mean ± SD)” value in data set [1] (62.5 μg/ml, 12 hours) came out at 1.4 ± 5.2%; in data set [1] (62.5 μg/ml, 24 hours), 4.3 ± 4.9%; in data set [1] (62.5 μg/ml, 48 hours), 21.1 ± 6.2%; in data set [1] (250 μg/ml, 12 hours) it was 13.4 ± 8.3%; in data set [1] (250 μg/ml, 24 hours), 26.4 ± 3.9%; in data set [1] (250 μg/ml, 48 hours) it was 71.5 ± 6.8%. The “Growth inhibition percent (Mean ± SD)” value in data set [1] (500 μg/ml, 12 hours) is on record as 16.9 ± 5.2%; in data set [1] (500 μg/ml, 24 hours), 33.8 ± 4.8%; in data set [1] (500 μg/ml, 48 hours), 74.9 ± 5.1%; in data set [1] (1000 μg/ml, 12 hours), 19.8 ± 6.7%; in data set [1] (1000 μg/ml, 24 hours), 59.9 ± 6.2%; in data set [1] (1000 μg/ml, 48 hours) it was 87.6 ± 4.4%. Also, the “Growth inhibition percent (Mean ± SD)” value stood at 78.8 ± 5.1% in data set [1] (2000 μg/ml, 12 hours); 80.4 ± 3.8% in data set [1] (2000 μg/ml, 24 hours); 100 ± 0.0% in data set [1] (2000 μg/ml, 48 hours); 100 ± 0.0% in data set [1] (4000 μg/ml, 12 hours); 100 ± 0.0% in data set [1] (4000 μg/ml, 24 hours); 100 ± 0.0% in data set [1] (4000 μg/ml, 48 hours). In addition, the values for the IC50 in data set [1] (12 hours incubation), in data set [1] (24 hours incubation) and in data set [1] (48 hours incubation) were 1398 mg/L, 689 mg/L and 140 mg/L, respectively. The “MLC (minimum lethal concentration)” value is 4000 mg/L in data set [1] (12 hours incubation), 4000 mg/L in data set [1] (24 hours incubation) and 2000 mg/L in data set [1] (48 hours incubation). For the same compound, the “mean IC50” value in data set [1] (average of 12, 24 and 48 hours) was determined as 742.3 mg/L. Further, the 50% cytotoxic concentration (CC50) is 747 mg/L with Vero cells (12 hours), 677 mg/L with Vero cells (24 hours) and 473 mg/L in the data set on Vero cells (48 hours). In data set [4], this compound displayed a necrotic effect of 31.9%.

Broadly, the inhibition is how much of the control response was suppressed. As usually defined, the CC50 is the concentration at which the toxic effect on the cells reaches its halfway point.
